# Laboratory results as given in patent US11472825B2, “Real-time fluorescence imaging sensor for measuring glutathione in organelle and preparation method therefor” (CELL2IN, INC., priority 2017, dated 2022).
# Columns and labels:
# [1] = system: mitochondrial glutathione in HeLa cells; assay: Real-time imaging of living cells loaded with MitoFreSH-tracer (confocal, F510/F580 ratio); assay type: cell-based
# Protocol: 1-5. Real-Time Imaging of Living Cells
# HeLa cells were cultured in DMEM (containing 10% heat-inactivated FBS (Hyclone), 100 U/ml of penicillin, 100 μg/ml of streptomycin sulfate and 2 mM glutamine aid free of phenol red). HeLa cells were seeded in 35 mm cover glass bottom dishes (SPL Life Sciences), and then cultured under the conditions of 37° C. and 5% CO2 for foe indicated time. Before observation using a fluorescence microscope, the HeLa cells were incubated with 2 mL of a medium containing 10 μM of the FreSH-tracer-derived compound for 0.5 to 1.5 hours. After washing twice with PBS, real-time images of the cells were acquired using a Nikon A1 laser scanning confocal microscope. […] The FreSH-tracer-derived compound was excited with laser beams at 403 nm and 488 nm, and the fluorescence of the tracer-derived compound was detected through filters with 500-550 nm and 570-620 nm band intervals, respectively. Using NIS-Elements AR software, the experimental data were analyzed and the ratio of fluorescence was imaged (see FIGS. 4 and 5).
# The present inventors have studied the applicability of the MitoFreSH-tracer to examination of changes in mitochondrial glutathione levels in living cells. […] The sensor fluorescence intensity ratio calculated from images of the living cells was reduced by treatment with diamide (FIGS. 4B and 4C). […]
# [2] = system: glutathione in the Golgi apparatus of HeLa cells; assay: High-throughput cell imaging of cells loaded with GolgiFreSH-tracer; assay type: cell-based
# Protocol: 1-6. High-Throughput Cell Imaging
# HeLa cells were cultured in DMEM (containing 10% heat-inactivated FBS (Hyclone), 100 U/ml of penicillin, 100 μg/ml of streptomycin sulfite and 2 mM glutamine and free of phenol red). HeLa cells were seeded in Greiner 96-well dishes (Sigma-Aldrich), and then cultured under the conditions of 37° C. and 5% CO2 for the indicated time. Before observation using a fluorescence microscope, the HeLa cells were incubated with a medium containing 10 μM of the GolgiFreSH-tracer for 0.5 to 1.5 hours. After washing twice with Hank's balanced salt solution, real-time images of the cells were acquired using an Operetta High-Content Imaging System (PerkinElmer). The imaging test was performed while the cells w ere incubated under the conditions of 37° C. and 5% CO2 in a chamber mounted in the microscope. The GolgiFreSH-tracer was excited with LED light at 410-430 nm and 490-510 nm, and the fluorescence of the tracer was detected through filters with 460-540 nm and 560-630 nm band intervals, respectively. BODIPY TR C5ceramide was excited with LED light at 560-580 nm, and the fluorescence thereof was detected through filters with 590-640 nm band intervals. Using the Harmony software, the experimental data were analyzed (see FIGS. 4, 5 and 8). […]
Molecule,"sensor fluorescence intensity ratio (F510/F580) of MitoFreSH-tracer in living cells ([1]; HeLa cells loaded with MitoFreSH-tracer, 0.5 mM diamide)",fluorescence intensity ratio of GolgiFreSH-tracer in living cells ([2]; living cells treated with various concentrations of diamide),"sensor fluorescence intensity ratio of GolgiFreSH-tracer in living cells ([2]; sensor-loaded living cells, 1 mM diamide)","fluorescence intensity ratio of MitoFreSH-tracer in living cells ([1]; cells treated with antimycin A for 75 minutes, various concentrations)"
"CN(C)C(=O)/N=N/C(=O)N(C)C [diamide, Diamide]",reduced,decreased depending on the concentration,reduced,
Antimycin A,,,,decreased depending on the concentration
